The source of these data is paper PMC7835950 (Frontiers in Chemistry, 2021).

One assay addresses T1, OADH (Rattus norvegicus, UniProt Q4KLP0).
T1 sequence (Q4KLP0 45-920 limits assumed): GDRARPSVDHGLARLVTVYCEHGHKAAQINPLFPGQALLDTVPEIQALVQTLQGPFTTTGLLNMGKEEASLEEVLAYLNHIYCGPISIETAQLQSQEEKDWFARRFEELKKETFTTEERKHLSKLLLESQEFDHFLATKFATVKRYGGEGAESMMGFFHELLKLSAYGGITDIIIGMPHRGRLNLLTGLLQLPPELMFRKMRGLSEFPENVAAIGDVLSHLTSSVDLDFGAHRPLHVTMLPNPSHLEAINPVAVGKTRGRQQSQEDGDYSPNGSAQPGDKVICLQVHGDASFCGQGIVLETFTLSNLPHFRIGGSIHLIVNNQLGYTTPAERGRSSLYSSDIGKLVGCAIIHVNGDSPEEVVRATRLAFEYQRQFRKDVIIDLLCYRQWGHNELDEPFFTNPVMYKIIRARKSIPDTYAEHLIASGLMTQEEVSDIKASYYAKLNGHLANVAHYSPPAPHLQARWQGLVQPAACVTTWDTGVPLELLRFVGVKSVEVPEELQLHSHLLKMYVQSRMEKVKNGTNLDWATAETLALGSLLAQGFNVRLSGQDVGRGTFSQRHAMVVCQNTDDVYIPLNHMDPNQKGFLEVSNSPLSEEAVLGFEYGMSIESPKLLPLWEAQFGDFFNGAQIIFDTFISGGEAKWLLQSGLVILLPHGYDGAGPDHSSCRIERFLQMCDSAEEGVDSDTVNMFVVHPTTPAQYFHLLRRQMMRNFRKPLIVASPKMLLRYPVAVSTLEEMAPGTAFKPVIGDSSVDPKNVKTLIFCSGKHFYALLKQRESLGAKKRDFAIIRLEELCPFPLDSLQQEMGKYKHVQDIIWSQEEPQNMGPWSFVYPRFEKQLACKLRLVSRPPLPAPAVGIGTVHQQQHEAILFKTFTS
As to the kind of experiment: OADH reaction catalyzed by the enzyme preparation from rat liver, low [OA] (high-affinity OA sites). The class given is biochemical. The following applies: for Ki / Amax: OADH reaction, liver; for Amax: high-affinity sites. On the procedure: Enzymes catalyzing OGDH and OADH reactions were enriched from rat hearts and livers using polyethylene glycol precipitation, as previously described (Artiukhov et al., [2020]).
(§1) The enzyme activities were assayed in the medium (pH 7.0) containing 50 mM MOPS, 1 mM ThDP, 1 mM MgCl2, 1 mM CaCl2, 1 mM dithiothreitol 0.15 mM Coenzyme A, 0.25 mM NAD^+ and various concentrations of 2-oxo substrates (0–10 mM OG or OA) and their phosphonate analogs (0–5,000 μM SP, GP, or AP). Reactions were started by addition of the enzyme preparations to the assay media. The amount of enzyme preparations (0.074 mg protein for the preparation from liver and 0.023 mg protein for the preparation from heart) were chosen to induce the lowest reliably measured reaction rate (ΔA340 = 0.001/min) at 0.01 mM OA without the phosphonates.
Reaction rates were calculated from linear parts of the product accumulation curves (up to 10 min, dependent on the reaction rate), excluding the initial region, where mixing the reagents and solubilization of the preparation affected the optical density.
Non-linear regression was used to approximate the experimental dependences of the reaction rates on the OG or OA concentration according to the Michaelis-Menten equation ( a=Amax*[S]/Km+[S] ) or its sum ( a=Amax*[S]/Km+[S]+Amax,2*[S]/Km,2+[S] ). The former equation describes one type of the active sites. […] The assumption was based on the presence of the two enzymes, OGDH and OADH, in the employed preparations.
The kinetic data were also analyzed by linear regression, using the known methods of the linearization of the Michaelis-Menten equation in the Lineweaver-Burk ( 1/a=1/Amax(1+Km/[S]) ) and Eadie-Hofstee ( a=Amax−Kmv/[S] ) coordinates. Due to the several orders of magnitude difference in the values of Km,1 and Km,2, the linear regression required separate analysis of the dependencies in the intervals of the low and high concentrations of 2-oxoadipate. The Km and Amax values obtained in independent experiments using the non-linear and linear regression analyses of the experimental data, were averaged and presented as Mean ± Standard Error of Mean.
(§2) To determine the inhibition constants (Ki), the effective values of Kmeff and Amaxeff , calculated from the hyperbolic or linear approximations as described above, were plotted against the concentration of the inhibitors ([I]). The linear regression of the equation Kmeff/Amaxeff=Km/Amax(1+[I]/Ki) , (Cornish-Bowden, [1979]) was applied to find the Intercept (Km/Amax) and Slope (Km/(Amax*Ki)) of a dependence. The values of Ki were determined as the ratio of the corresponding Intercepts to the Slopes. In the two-site model, the Ki(1) and Ki(2) were calculated separately from the linear approximations of Km,1eff/Amax,1eff vs. [I] and Km,2eff/Amax,2eff vs. [I] dependences, respectively. The standard errors of Ki were determined from means and standard errors of the Intercepts and the Slopes, using the previously described formula for standard deviation of a fraction (Bunik et al., [1999]). The Ki values obtained from the non-linear and linear regression analyses of the experimental data were averaged and presented as Mean ± Standard Error of Mean.

The test system of a further assay is OGDH and OADH. As to the kind of experiment: Mechanism of inhibition of the OGDH and OADH reactions (effective Km and Amax vs inhibitor concentration). The conditions noted are these: vs 2-oxo substrate; cardiac or hepatic preparations; inhibitor up to 200 μM. The class given is biochemical, rat. On the procedure: as §1, §2
[1] abbreviates: low [OA] 0–0.05 mM, Michaelis-Menten, read-out: Ki, MM.
Setting [2] is: low [OA], Eadie-Hofstee, read-out: Ki, EH.
Where [3] appears, read: low [OA], Lineweaver-Burk, read-out: Ki, LB.
The mark [4] stands for this setting: low [OA], average, read-out: Ki, Average.

The Ki is the dissociation constant of the complex between target and ligand, obtained from inhibition or displacement.

Each structure is given as a SMILES string. Where “and” joins values, the source holds several entries; their conditions need not be identical. Identical values can stand only once. Like-named read-outs stand apart in the source and are kept apart here.

As to `O=C(O)CCCCC(=O)P(=O)(O)O` [AP, adipoyl phosphonate], the Ki was 50 nM and 44 nM on OADH (setting [1]); 44 ± 111 nM at OADH (setting [2]); 56 ± 118 nM on OADH (setting [3]); 48 ± 4 nM at OADH (setting [4]). Further, the Amax is recorded as 0.0014 ± 0.0001 µmol/min per mg of protein on OADH ([I] 0.5 µM), 0.0056 ± 0.0022 µmol/min per mg of protein on OADH ([I] 2 µM) and 0.0088 ± 0.0041 µmol/min per mg of protein on OADH ([I] 10 µM). Further, in the assay on OGDH and OADH, the “primary mechanism of inhibition” value is “competitive inhibition”.

`O=C(O)CCCC(=O)C(=O)O` [OA, 2-oxoadipate]: on OADH (hepatic preparation, low- vs high-affinity sites), the “difference in the affinities of the two types of the sites to OA” value is 60 fold.

Consider `O=C(O)CCCC(=O)P(=O)(O)O` [GP, glutaryl phosphonate], for which the Ki at OADH (setting [1]) is 2400 ± 300 nM; on OADH (setting [2]), 1900 ± 300 nM; at OADH (setting [3]), 1600 ± 200 nM; at OADH (setting [4]) it was 2000 ± 200 nM. Moreover, the Amax at OADH ([I] 2 µM) is 0.0026 ± 0.0002 µmol/min per mg of protein; at OADH ([I] 10 µM), 0.0018 ± 0.0001 µmol/min per mg of protein; at OADH ([I] 50 µM) it was 0.0011 ± 0.00005 µmol/min per mg of protein; at OADH ([I] 200 µM), 0.0016 ± 0.0001 µmol/min per mg of protein; at OADH ([I] 1000 µM), 0.0013 ± 0.0001 µmol/min per mg of protein. Also, the “primary mechanism of inhibition” value with OGDH and OADH is on record as “competitive inhibition”.

For the compound `O=C(O)CCC(=O)P(=O)(O)O` [SP, succinyl phosphonate], the inhibitory constant (Ki) at OADH (setting [1]) turned out to be 128000 ± 9000 nM; on OADH (setting [2]), 110000 ± 7000 nM; at OADH (setting [3]), 109000 ± 9000 nM; on OADH (setting [4]), 116000 ± 6000 nM. Also, the Amax on OADH ([I] 10 µM) was 0.0017 ± 0.0001 µmol/min per mg of protein; on OADH ([I] 50 µM), 0.0016 ± 0.0001 µmol/min per mg of protein; on OADH ([I] 200 µM), 0.0016 ± 0.00005 µmol/min per mg of protein; at OADH ([I] 1000 µM), 0.0014 ± 0.0001 µmol/min per mg of protein; on OADH ([I] 5000 µM), 0.0010 ± 0.00003 µmol/min per mg of protein. For the same compound, the “primary mechanism of inhibition” value in the assay with OGDH and OADH was “competitive inhibition”.
